Data as given in patent publication US20250114329A1, “METHODS FOR TREATING AML-MRC AND MDS” (Ascentage Pharma (Suzhou) Co., LTD, priority 2022, published 2025).

Tests used:
[1] = system: R/R AML with myelodysplasia-related changes; test: Phase Ib/II study of Compound C alone or in combination with 5-azacitidine or cytarabine (Example 2); type: in vivo, human; settings: Compound C alone, person, R/R AML-MRC
Source text: This was a three parts study in patients with relapsed/refractory acute myeloid leukemia (AML), relapsed or progressed high or very high risk myelodysplastic syndrome (MDS) that was designed to evaluate the safety and tolerability of Compound C as a single agent in Part I, followed by a combination dose escalation of Compound C plus either 5-azacitidine or cytarabine in Part II and a dose expansion of the combination treatment in part III. Part I: Dose escalation of Compound C will use standard 3+3 design. Compound C will be administered orally once daily (QD) on Day 1 to 7 every 28-day cycle. The starting target dose is 100 mg (dose level; DL1) and will be increased in subsequent cohorts to 150 mg (DL2), 200 mg (DL3) and 250 mg (DL4), accordingly. Part II: Dose escalation of Compound C combination with either 5-azacitidine or cytarabine, which includes two Arms, Arm A and Arm B. Arm A will enroll patients with relapsed or progressed high or very high risk MDS and Arm B will enroll patients with R/R AML. In this part, 5-azacitidine and cytarabine will be administered with fixed dose. The starting dose of Compound C was 100 mg and will be increased subsequently to 150 mg and 200 mg. In Arm A, Compound C will be co-administered with 5-azacitidine subcutaneously injected at 75 mg/m^2 once daily on Day 1 to 7 every 28-day cycle. In Arm B, Compound C will be co-administered once daily on Day 1 to 7 every 28-day cycle with cytarabine intravenously administered at 1 g/m^2 once daily on Day 3 to 7 every 28-day cycle.

H929 cells = test: Western Blotting assay; type: cell-based, human; settings: 24 hrs or 48 hrs
Protocol: After treatments with single or combined test articles, cultured cells were harvested and washed with ice-cold PBS. Cell pellets were lysed in RIPA buffer containing 1% PMSF, 1% phosphatase inhibitor, and 1% protease inhibitors. Protein concentrations were determined using the BCA Protein Assay Kit. Whole tumor lysates ([…]) were separated on an 8-12% SDS-PAGE. The separated proteins were transferred to a PVDF membrane. The PVDF membrane was blocked with 1-3% BSA buffer for 30 min to 1 hour at room temperature. Incubate membrane with diluted primary antibody in 1×TBST containing 1-3% BSA at 4° C., with gentle agitation overnight. Wash the membrane with 1×TBST three times. Incubate membrane with HRP-conjugated secondary antibody with gentle agitation for 1 hour at room temperature. Wash the membrane with 1×TBST three times. The signals were visualized with Super ECL Detection Reagent and detected by chemiluminescence imaging system.

[2] = system: relapsed/refractory AML, CMML or MDS (AML-MRC subject); test: Phase Ib/II study of Compound C alone or in combination with azacitidine (Example 1); type: in vivo, human; settings: Compound C alone, 150 mg
Source text: This was a two part study in patients with relapsed/refractory (R/R) acute myeloid leukemia (AML), Chronic Myelomonocytic Leukemia (CMML) and relapsed/progressed higher-risk myelodysplastic syndrome (MDS), that was designed to evaluate the safety and tolerability of Compound C as a single agent in Part I, followed by a combination of Compound C plus 5-azacitidine in Part II. Part I: Dose escalation of Compound C will use standard 3+3 design. Compound C will be administered orally once daily (QD) on Day 1 to 5 every 28-day cycle. The starting target dose is 100 mg (dose level; DL1) and will be increased in subsequent cohorts to 150 mg (DL2), 200 mg (DL3) and 250 mg (DL4), accordingly. Part II: Compound C will be co-administered with 5-azacitidine SC or IV at 75 mg/m^2 once daily on 7 out of 9 days from Day 1 to Day 9 every 28-day cycle.

## CCN1[C@@H](C(=O)NC23CCC(C(=O)O)(CC2)CC3)[C@H](c2cccc(Cl)c2F)[C@]2(C(=O)Nc3cc(Cl)ccc32)C12CCCCC2 [Compound C, alrizomadlin]
[1]; 100 mg, prior D-CAG, C1D62
  Response: CRi
[1]; 200 mg, prior D-CAG, C3D21
  Response: CRi
[1]; 250 mg, several prior regimens
  Response: MLFS
H929 cells
  P53, MDM2 and P21 expression: upregulated
[2]; person, AML-MRC (TP53w, FLT3-, IDH1/2-), prior venetoclax + decitabine
  End of cycle 1 disease assessment: CRi
[2]; reduced from 43%, Day 1 of cycle 2
  Blast at C2D1: to 13%
[2]; reduced from 43%, Day 1 of cycle 3
  Blast at C3D1: C2D1, to 3%
